Measured values taken from publication PMC11873566 (Acta Pharmaceutica Sinica. B, 2024).
pKd: −log10 of the molar value.

Target: alpha-enolase (ENO1) (Homo sapiens, UniProt P06733)
Assay: MST with NT-647-NHS labelled recombinant ENO1
Format: binding

Chain of alpha-enolase (ENO1) (P06733 2-434): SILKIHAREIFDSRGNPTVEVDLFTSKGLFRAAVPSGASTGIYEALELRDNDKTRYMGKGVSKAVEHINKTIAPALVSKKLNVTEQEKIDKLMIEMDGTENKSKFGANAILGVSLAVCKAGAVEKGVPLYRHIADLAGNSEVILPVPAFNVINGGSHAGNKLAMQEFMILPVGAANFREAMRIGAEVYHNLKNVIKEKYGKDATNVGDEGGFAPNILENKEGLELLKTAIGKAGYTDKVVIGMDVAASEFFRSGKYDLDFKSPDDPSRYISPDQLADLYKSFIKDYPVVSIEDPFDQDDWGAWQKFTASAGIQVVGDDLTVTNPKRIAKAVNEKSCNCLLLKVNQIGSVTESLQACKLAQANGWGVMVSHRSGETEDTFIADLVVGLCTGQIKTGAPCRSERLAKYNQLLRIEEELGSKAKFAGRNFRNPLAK

pKd: 4.82
SMILES: O=c1cc(-c2ccccc2)oc2cc(O)cc(O)c12 [compound 1, chrysin]
